Results as given in publication PMC2765782 (Journal of medicinal chemistry, 2009).

Assays:
human RXRα [1] = molecular target: T1, human RXRα (Homo sapiens, UniProt P19793); conditions: 10^−7 M, 24 h, Caco-2 cells, versus ethanol control (Figure 4)
T1 sequence (P19793 1-462): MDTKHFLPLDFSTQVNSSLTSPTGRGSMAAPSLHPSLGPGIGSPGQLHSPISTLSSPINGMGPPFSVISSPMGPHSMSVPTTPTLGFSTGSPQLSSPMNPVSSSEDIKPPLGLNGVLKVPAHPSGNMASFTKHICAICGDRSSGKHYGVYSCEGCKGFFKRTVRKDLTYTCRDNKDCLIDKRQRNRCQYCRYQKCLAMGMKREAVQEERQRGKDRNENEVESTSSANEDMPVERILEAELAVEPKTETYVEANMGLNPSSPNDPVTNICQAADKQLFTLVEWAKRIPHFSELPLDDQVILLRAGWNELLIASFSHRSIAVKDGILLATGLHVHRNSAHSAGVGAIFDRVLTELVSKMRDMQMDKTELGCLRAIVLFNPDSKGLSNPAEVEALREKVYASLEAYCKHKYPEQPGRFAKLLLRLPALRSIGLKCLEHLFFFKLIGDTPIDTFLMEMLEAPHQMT

RXR [2] = molecular target: T2, RXR (Homo sapiens, UniProt P19793); test: cell-based
T2 sequence (P19793 227-462 limits assumed): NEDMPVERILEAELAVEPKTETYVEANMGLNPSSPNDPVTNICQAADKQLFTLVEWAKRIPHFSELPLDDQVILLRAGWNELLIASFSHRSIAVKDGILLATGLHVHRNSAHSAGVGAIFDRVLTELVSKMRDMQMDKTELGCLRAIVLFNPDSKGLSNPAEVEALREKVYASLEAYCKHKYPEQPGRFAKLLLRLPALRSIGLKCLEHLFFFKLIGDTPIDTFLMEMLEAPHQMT

human RARα = molecular target: T3, human RARα (Homo sapiens, UniProt P10276); conditions: RARE-luciferase reporter, Caco-2 cells
T3 sequence (P10276 1-462): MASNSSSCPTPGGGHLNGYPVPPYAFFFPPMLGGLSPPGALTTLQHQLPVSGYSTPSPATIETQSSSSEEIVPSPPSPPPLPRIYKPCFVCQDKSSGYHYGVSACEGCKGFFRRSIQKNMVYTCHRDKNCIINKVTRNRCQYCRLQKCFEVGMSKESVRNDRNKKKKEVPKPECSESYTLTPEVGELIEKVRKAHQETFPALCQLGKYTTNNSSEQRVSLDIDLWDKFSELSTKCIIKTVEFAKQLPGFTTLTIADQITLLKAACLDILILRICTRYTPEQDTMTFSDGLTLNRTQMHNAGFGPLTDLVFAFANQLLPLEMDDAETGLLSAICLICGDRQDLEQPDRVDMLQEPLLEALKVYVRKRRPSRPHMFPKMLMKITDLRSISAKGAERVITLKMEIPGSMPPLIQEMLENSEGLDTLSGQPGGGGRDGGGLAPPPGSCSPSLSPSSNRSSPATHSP
T3 sequence (P19793 1-462 partner): T1 sequence (P19793 1-462)

human RXRα [3] = molecular target: T1, human RXRα; test: biochemical
RXR [4] = molecular target: T2, RXR; conditions: for RXR binding and homodimerization relative to 1 (luciferase output): 10^−7 M, 24 h, Caco-2 cells, compound 1 set to 1.0 (Figure 3)
[5] = tested on: Human T-cell lymphoma (CTCL) cells (Hut78); conditions: 24 h, versus ethanol vehicle control (Figure 5)
human RXRα [6] = molecular target: T1, human RXRα; conditions: based on Ki values of Table 1

Row | Compound | RXR-mediated transcriptional activity (RXRE-luciferase) (human RXRα [1]) | EC50 (RXR [2]) | RAR agonist activity compared with 1 (human RARα) | Ki (human RXRα [3]) | RXR binding and homodimerization relative to 1 (luciferase output) (RXR [4]) | apoptotic activity (caspases 3 and 7) [5] | increase in efficacy based on EC50 values (RXR [4]; versus 1, Table 1) | apparent RXR binding affinity greater than 1 (human RXRα [6])
1 | 5-(1-(1,2,3,4-Tetrahydro-1,1,4,4,6-pentamethylnaphthalen-7-yl)vinyl)benzene-1,3-dioic Acid [Compound 14] | did not display significant RXR binding and activation |  |  |  |  |  |  | 
2 | C=C(c1ccc(C(=O)O)c([N+](=O)[O-])c1)c1cc2c(cc1C)C(C)(C)CCC2(C)C [Compound 16, 4-(1-(1,2,3,4-Tetrahydro-1,1,4,4,6-pentamethylnaphthalen-7-yl)vinyl)-2-nitrobenzoic Acid] | transcriptional activity significantly above the ethanol control levels | 0.2 µM | slightly greater RAR agonist activity | 0.081 µM |  |  |  | 
3 | C=C(c1cc2c(cc1C)C(C)(C)CCC2(C)C)c1ccc(C(=O)O)cc1F [Compound 18, 3-Fluoro-4-(1-(1,2,3,4-tetrahydro-1,1,4,4,6-pentamethylnaphthalen-7-yl)vinyl)benzoic acid] | transcriptional activity significantly above the ethanol control levels | 0.42 µM | significantly lower RAR binding | 0.161 µM | about half as well as 1 |  |  | 
4 | Cc1cc2c(cc1C(=O)c1ccc(C(=O)O)cc1F)C(C)(C)CCC2(C)C [Compound 19, 3-Fluoro-4-(1-(3,5,5,8,8-pentamethyl-5,6,7,8-tetrahydronaphthalen-2-yl)carbonyl)benzoic acid] |  |  |  |  | does not bind to RXR | almost no apoptotic activity |  | 
5 | C=C(c1ccc(C(=O)O)c(F)c1)c1cc2c(cc1C)C(C)(C)CCC2(C)C [Compound 20, 2-fluoro-4-(1-(1,2,3,4-tetrahydro-1,1,4,4,6-pentamethylnaphthalen-7-yl)vinyl)benzoic acid] | transcriptional activity significantly above the ethanol control levels | 0.043 µM | approximately equal to 1 | 0.012 µM |  |  | 20% | 75%
6 | Cc1cc2c(cc1C(=O)c1ccc(C(=O)O)c(F)c1)C(C)(C)CCC2(C)C [Compound 21, 2-fluoro-4-(1-(3,5,5,8,8-pentamethyl-5,6,7,8-tetrahydronaphthalen-2-yl)carbonyl)benzoic acid] |  |  |  |  | a small degree of RXR binding and homodimerization relative to 1 |  |  | 
